Data from patent US10441787B2, “Neuromodulation device” (GALVANI BIOE[…], priority 2015, dated 2019).
“Also recorded” adds a separate entry of the source.

Tested on: guinea pig airway smooth muscle tone
Experiment: In-vivo model of baseline airway smooth muscle tone
Design: dose or concentration left out as unconfirmed
Details: anesthetized guinea pigs; atropine delivered selectively to the trachea via Krebs buffer perfusion; isometric tension of tracheal rings 6 and 7
Description: FIG. 10: Schematic illustration of the method for assessing vagally-mediated baseline airay smooth muscle tone in anesthetized guinea pigs. (As described in, Mazzone and Canning, Curr. Protoc. Pharmacol. 2002. May 1; Chapter 5: Unit 5.26.)
Methods for studying vagally-mediated bronchospasm in anesthetized guinea pigs have been described in detail elsewhere (Mazzone and Canning, Curr Protoc Pharmacol. 2002 May 1; Chapter 5:Unit 5.26; Auton Neurosci. 2002 Aug. 30; 99(2):91-101) and shown in FIG. 10. Guinea pigs are anesthetized with urethane (1.5 g/kg ip). The trachea and vagus nerves are visualized by a midline incision in the neck. The trachea is cannulated and connected to a constant volume ventilator (6 mL/kg body weight). The animals are then paralyzed with succinylcholine (2.5 mg/kg sc). An artery and vein are cannulated to monitor cardiovascular parameters and for drug delivery. The vagus nerves are placed on bipolar electrodes. […] Bronchospasm is recorded as a percentage increase in pulmonary inflation pressure.
Using the method illustrated in FIG. 10, the portion of the trachea where isometric tension was measured (rings 6 and 7 caudal to the larynx) was perfused with warmed (37° C.), oxygenated Krebs buffer, which was used for selective delivery of atropine ([…]) to the trachea. […]

Compound: CN1[C@@H]2CC[C@H]1C[C@@H](OC(=O)C(CO)c1ccccc1)C2 (stereo partly shown) [atropine]
- baseline airway smooth muscle tone: decrease in baseline airway smooth muscle tone; also recorded: Inhibition of guinea pig airway smooth muscle tone
